Measured values published in patent US9387204B2, “Fused bicyclic imidazoles” (BAYER INTELLECTUAL PROPERTY GmbH, priority 2007, dated 2016).

system: A549 cells; experiment: Cellular proliferation/cytotoxicity assay (Alamar Blue), A549 cells; conditions: Homo sapiens, A549, 72 h, read-out: Anti-proliferative/Cytotoxic activity (A549 cells)
Method: The anti-proliferative activity of the compounds as described herein, is evaluated using the OvCAR3, HCT116 and A549 cell lines and the Alamar Blue (Resazurin) cell viability assay (O'Brien et al. Eur J Biochem 267, 5421-5426, 2000). Resazurin is reduced to the fluorescent resorufin by cellular dehydrogenase activity, correlating with viable, proliferating cells. Test compounds are dissolved as 10 mM solutions in DMSO and subsequently diluted. Cells like HCT116 or A549 cells were seeded into 96 well flat bottom plates at a density of 10000 cells/well (OvCAR3 cells), 1000 cells/well (HCT116 cells) or 2000 cells/well (A549 cells) in a volume of 200 μl/well. 24 hours after seeding, 1 μl each of the compound dilutions are added into each well of the 96 well plates. Each compound dilution is tested as at least as duplicates. Wells containing untreated control cells were filled with 200 μl DMEM (Dulbecco's Modified Eagle Medium) containing 0.5 vol % v:v DMSO. The cells are then incubated with the substances for 72 h at 37° C. in a humidified atmosphere containing 5 vol % CO2. To determine the viability of the cells, 20 μl of a Resazurin solution (90 mg/l) are added. After 4 h incubation at 37° C., the fluorescence is measured by extinction at ? =544 nm and an emission of ? =590 nm (Wallac Victor2; Perkin Elmer, USA). For the calculation of the cell viability, the emission value from untreated cells is set as 100% viability and the fluorescence intensity of treated cells are set in relation to the values of untreated cells. Viabilities are expressed as % values. The corresponding IC50 values of the compounds for cytotoxic activity are determined from the concentration-effect curves by means of non-linear regression. The analysis of the data is performed using a biostatistical program (Graph Pad Prism, USA).

Question: For `COc1cccn2c(-c3ccccc3)c(-c3ccc(CN4CCC(c5n[nH]c(-c6ccccn6)n5)CC4)cc3)nc12` [Example 13, 8-methoxy-3-phenyl-2-(4-{[4-(5-pyridin-2-yl-1,2,4-triazol-3-yl)piperidin-1-yl]methyl}phenyl)imidazo[1,2-a]pyridine], which IC50 is on record?
Answer: < 10 µM

Question: Which IC50 does the source give for `COc1ccc2nc(-c3ccc(CN4CCC(c5n[nH]c(-c6ccccn6)n5)CC4)cc3)c(-c3ccccc3)n2n1` [Example 32, 6-methoxy-3-phenyl-2-(4-{[4-(5-pyridin-2-yl-1,2,4-triazol-3-yl)piperidin-1-yl]methyl}phenyl)imidazo[1,2-b]pyridazine] here?
Answer: < 10 µM

Question: With `Ic1cnc2nc(-c3ccc(CN4CCC(c5n[nH]c(-c6ccccn6)n5)CC4)cc3)c(-c3ccccc3)n2c1` [Example 23, 6-iodo-3-phenyl-2-(4-{[4-(5-pyridin-2-yl-1,2,4-triazol-3-yl)piperidin-1-yl]methyl}phenyl)imidazo[1,2-a]pyrimidine] as the molecule, how does the IC50 read?
Answer: > 10 µM

Question: How did the IC50 turn out when `Clc1cnc2nc(-c3ccc(CN4CCC(c5n[nH]c(-c6ccccn6)n5)CC4)cc3)c(-c3ccccc3)n2c1` [Example 21, 6-chloro-3-phenyl-2-(4-{[4-(5-pyridin-2-yl-1,2,4-triazol-3-yl)piperidin-1-yl]methyl}phenyl)imidazo[1,2-a]pyrimidine] was run?
Answer: < 10 µM

Question: `c1ccc(-c2nc(C3CCN(Cc4ccc(-c5nc6ncccn6c5-c5ccncc5)cc4)CC3)n[nH]2)nc1` [Example 36, 3-pyridin-4-yl-2-(4-{[4-(5-pyridin-2-yl-1,2,4-triazol-3-yl)piperidin-1-yl]methyl}phenyl)imidazo[1,2-a]pyrimidine] was tested. Which IC50 did it give?
Answer: > 10 µM

Question: Which IC50 does the source give for `Brc1ccc2nc(-c3ccc(CN4CCC(c5n[nH]c(-c6ccccn6)n5)CC4)cc3)c(-c3ccccc3)n2c1` [Example 6, 6-bromo-3-phenyl-2-(4-{[4-(5-pyridin-2-yl-1,2,4-triazol-3-yl)piperidin-1-yl]methyl}phenyl)imidazo[1,2-a]pyridine] here?
Answer: < 10 µM

Question: With `NC(=O)c1ccn2c(-c3ccccc3)c(-c3ccc(CN4CCC(c5n[nH]c(-c6ccccn6)n5)CC4)cc3)nc2c1` [Example 38, 3-phenyl-2-(4-{[4-(5-pyridin-2-yl-1,2,4-triazol-3-yl)piperidin-1-yl]methyl}phenyl)imidazo[1,2-a]pyridine-7-carboxamide] as the molecule, how does the IC50 read?
Answer: > 10 µM

Question: Which IC50 does the source give for `Fc1ccc(-c2c(-c3ccc(CN4CCC(c5n[nH]c(-c6ccccn6)n5)CC4)cc3)nc3ncccn23)cc1` [Example 18, 3-(4-fluorophenyl)-2-(4-{[4-(5-pyridin-2-yl-1,2,4-triazol-3-yl)piperidin-1-yl]methyl}phenyl)imidazo[1,2-a]pyrimidine] here?
Answer: > 10 µM

Question: With `c1ccc(-c2c(-c3ccc(CN4CCC(c5n[nH]c(-c6ccccn6)n5)CC4)cc3)nc3cnccn23)cc1` [Example 37, 3-phenyl-2-(4-{[4-(5-pyridin-2-yl-1,2,4-triazol-3-yl)piperidin-1-yl]methyl}phenyl)imidazo[1,2-a]pyrazine] as the molecule, how does the IC50 read?
Answer: > 10 µM

Question: `c1ccc(-c2nnc(C3CCN(Cc4ccc(-c5nc6sccn6c5-c5ccccc5)cc4)CC3)[nH]2)cc1` [Example 122, 5-phenyl-6-(4-{[4-(5-phenyl-4H-1,2,4-triazol-3-yl)piperidin-1-yl]methyl}phenyl)imidazo[2,1-b][1,3]thiazole] was tested. Which IC50 did it give?
Answer: < 10 µM

Question: `c1ccc(-c2c(-c3ccc(CN4CCC(c5cc(-c6ccccn6)n[nH]5)CC4)cc3)nc3ncccn23)cc1` [Example 30, 3-phenyl-2-(4-{[4-(3-pyridin-2-yl-pyrazol-5-yl)piperidin-1-yl]methyl}phenyl)imidazo[1,2-a]pyrimidine] was tested. Which IC50 did it give?
Answer: > 10 µM

Question: How did the IC50 turn out when `N#Cc1ccn2c(-c3ccccc3)c(-c3ccc(CN4CCC(c5nnc(-c6ccccc6)[nH]5)CC4)cc3)nc2c1` [Example 118, 3-phenyl-2-(4-{[4-(5-phenyl-4H-1,2,4-triazol-3-yl)piperidin-1-yl]methyl}phenyl)imidazo[1,2-a]pyridine-7-carbonitrile] was run?
Answer: < 10 µM

Question: `Cc1ccc2nc(-c3ccc(CN4CCC(c5nnc(-c6ccccc6)[nH]5)CC4)cc3)c(-c3ccccc3)n2n1` [Example 119, 6-methyl-3-phenyl-2-(4-{[4-(5-phenyl-4H-1,2,4-triazol-3-yl)piperidin-1-yl]methyl}phenyl)imidazo[1,2-b]pyridazine] was tested. Which IC50 did it give?
Answer: < 10 µM

Question: How did the IC50 turn out when `Clc1ccn2c(-c3ccccc3)c(-c3ccc(CN4CCC(c5nnc(-c6ccccc6)[nH]5)CC4)cc3)nc2c1` [Example 120, 7-chloro-3-phenyl-2-(4-{[4-(5-phenyl-4H-1,2,4-triazol-3-yl)piperidin-1-yl]methyl}phenyl)imidazo[1,2-a]pyridine] was run?
Answer: < 10 µM

Question: Which IC50 does the source give for `Clc1ccc2nc(-c3ccc(CN4CCC(c5nnc(-c6ccccn6)[nH]5)CC4)cc3)c(-c3ccccc3)n2c1` [Example 7, 6-chloro-3-phenyl-2-(4-{[4-(5-pyridin-2-yl-4H-1,2,4-triazol-3-yl)piperidin-1-yl]methyl}phenyl)imidazo[1,2-a]pyridine] here?
Answer: < 10 µM

Question: `c1ccc(-c2nc(C3CCN(Cc4ccc(-c5nc6ncccn6c5-c5ccsc5)cc4)CC3)n[nH]2)nc1` [Example 34, 2-(4-{[4-(5-pyridin-2-yl-1,2,4-triazol-3-yl)piperidin-1-yl]methyl}phenyl)-3-(3-thienyl)imidazo[1,2-a]pyrimidine] was tested. Which IC50 did it give?
Answer: > 10 µM

Question: Which IC50 does the source give for `Clc1ccn2c(-c3ccccc3)c(-c3ccc(CN4CCC(c5nnc(-c6cccs6)[nH]5)CC4)cc3)nc2c1` [Example 103, 7-chloro-3-phenyl-2-[4-({4-[5-(2-thienyl)-4H-1,2,4-triazol-3-yl]piperidin-1-yl}methyl)phenyl]imidazo[1,2-a]pyridine] here?
Answer: < 10 µM

same assay, conditions: read-out: Anti-proliferative/Cytotoxic activity (A549 cells); A549 cells, 72 h, Alamar Blue (Resazurin)

Question: With `c1ccc(-c2c(-c3ccc(CN4CCC(c5cc(-c6ccccn6)[nH]n5)CC4)cc3)nc3scnn23)cc1` [Example 112, ′5-phenyl-6-(4-{[4-(5-pyridin-2-yl-1H-pyrazol-3-yl)piperidin-1-yl]methyl}phenyl)imidazo[2,1-b][1,3,4]thiadiazole] as the molecule, how does the IC50 read?
Answer: < 10 µM

Question: With `O=C(O)c1cn2c(-c3ccccc3)c(-c3ccc(CN4CCC(c5nnc(-c6ccccn6)[nH]5)CC4)cc3)nc2s1` [Example 127, ′5-phenyl-6-(4-{[4-(5-pyridin-2-yl-4H-1,2,4-triazol-3-yl)piperidin-1-yl]methyl}phenyl)imidazo[2,1-b][1,3]thiazole-2-carboxylic acid] as the molecule, how does the IC50 read?
Answer: > 10 µM

Question: How did the IC50 turn out when `N#Cc1ccn2c(-c3ccccc3)c(-c3ccc(CN4CCC(c5nnc(-c6cccs6)[nH]5)CC4)cc3)nc2c1` [Example 102, ′3-phenyl-2-[4-({4-[5-(2-thienyl)-4H-1,2,4-triazol-3-yl]piperidin-1-yl}methyl)phenyl]imidazo[1,2-a]pyridine-7-carbonitrile] was run?
Answer: < 10 µM

Question: With `c1ccc(-c2c(-c3ccc(CN4CCC(c5nnc(-c6ccc[nH]6)[nH]5)CC4)cc3)nc3sccn23)cc1` [Example 109, ′5-phenyl-6-[4-({4-[5-(1H-pyrrol-2-yl)-4H-1,2,4-triazol-3-yl]piperidin-1-yl}methyl)phenyl]imidazo[2,1-b][1,3]thiazole] as the molecule, how does the IC50 read?
Answer: < 10 µM

Question: `c1ccc(-c2c(-c3ccc(CN4CCC(c5nnc(-c6nccs6)[nH]5)CC4)cc3)nc3ccccn23)cc1` [Example 85, ′3-phenyl-2-[4-({4-[5-(1,3-thiazol-2-yl)-4H-1,2,4-triazol-3-yl]piperidin-1-yl}methyl)phenyl]imidazo[1,2-a]pyridine] was tested. Which IC50 did it give?
Answer: > 10 µM

Question: For `N#Cc1ccn2c(-c3ccccc3)c(-c3ccc(CN4CCC(c5nnc(-c6ccco6)[nH]5)CC4)cc3)nc2c1` [Example 96, ′2-[4-({4-[5-(2-furyl)-4H-1,2,4-triazol-3-yl]piperidin-1-yl}methyl)phenyl]-3-phenylimidazo[1,2-a]pyridine-7-carbonitrile], which IC50 is on record?
Answer: < 10 µM

Question: With `Cc1ccc2nc(-c3ccc(CN4CCC(c5nnc(-c6ncccn6)[nH]5)CC4)cc3)c(-c3ccccc3)n2n1` [Example 83, ′6-methyl-3-phenyl-2-(4-{[4-(5-pyrimidin-2-yl-4H-1,2,4-triazol-3-yl)piperidin-1-yl]methyl}phenyl)imidazo[1,2-b]pyridazine] as the molecule, how does the IC50 read?
Answer: > 10 µM

Question: How did the IC50 turn out when `c1ccc(-c2c(-c3ccc(CN4CCC(c5nnc(-c6cccs6)[nH]5)CC4)cc3)nc3scnn23)cc1` [Example 101, ′5-phenyl-6-[4-({4-[5-(2-thienyl)-4H-1,2,4-triazol-3-yl]piperidin-1-yl}methyl)phenyl]imidazo[2,1-b][1,3,4]thiadiazole] was run?
Answer: < 10 µM

Question: How did the IC50 turn out when `c1ccc(-c2c(-c3ccc(CN4CCC(c5n[nH]c(-c6ncccn6)n5)CC4)cc3)nc3ncccn23)cc1` [Example 79, ′3-phenyl-2-(4-{[4-(5-pyrimidin-2-yl-1H-1,2,4-triazol-3-yl)piperidin-1-yl]methyl}phenyl)imidazo[1,2-a]pyrimidine] was run?
Answer: > 10 µM

Question: Which IC50 does the source give for `Cc1ccc2nc(-c3ccc(CN4CCC(c5nnc(-c6ccccn6)[nH]5)CC4)cc3)c(-c3ccccc3)n2n1` [Example 53, ′6-methyl-3-phenyl-2-(4-{[4-(5-pyridin-2-yl-4H-1,2,4-triazol-3-yl)piperidin-1-yl]methyl}phenyl)imidazo[1,2-b]pyridazine] here?
Answer: < 10 µM

Question: How did the IC50 turn out when `Cc1cccc(-c2nnc(C3CCN(Cc4ccc(-c5nc6scnn6c5-c5ccccc5)cc4)CC3)[nH]2)n1` [Example 67, ′6-[4-({4-[5-(6-methylpyridin-2-yl)-4H-1,2,4-triazol-3-yl]piperidin-1-yl}methyl)phenyl]-5-phenylimidazo[2,1-b][1,3,4]thiadiazole] was run?
Answer: < 10 µM

Question: With `c1ccc(-c2c(-c3ccc(CN4CCC(c5nnc(-c6ccncc6)[nH]5)CC4)cc3)nc3ccccn23)cc1` [Example 58, ′3-phenyl-2-(4-{[4-(5-pyridin-4-yl-4H-1,2,4-triazol-3-yl)piperidin-1-yl]methyl}phenyl)imidazo[1,2-a]pyridine] as the molecule, how does the IC50 read?
Answer: < 10 µM

Question: With `N#Cc1cccn2c(-c3ccccc3)c(-c3ccc(CN4CCC(c5n[nH]c(-c6ccc(Cl)cn6)n5)CC4)cc3)nc12` [Example 75, ′2-[4-({4-[5-(5-chloropyridin-2-yl)-1H-1,2,4-triazol-3-yl]piperidin-1-yl}methyl)phenyl]-3-phenylimidazo[1,2-a]pyridine-8-carbonitrile] as the molecule, how does the IC50 read?
Answer: > 10 µM

Question: How did the IC50 turn out when `c1ccc(-c2c(-c3ccc(CN4CCC(c5cc(-c6ccccn6)n[nH]5)CC4)cc3)nc3ccccn23)cc1` [Example 111, ′3-phenyl-2-(4-{[4-(3-pyridin-2-yl-1H-pyrazol-5-yl)piperidin-1-yl]methyl}phenyl)imidazo[1,2-a]pyridine] was run?
Answer: < 10 µM
